According to ChEMBL document CHEMBL1137013, “Discovery of (2R)-2-(3-{3-[(4-Methoxyphenyl)carbonyl]-2-methyl-6-(trifluoromethoxy)-1H-indol-1-yl}phenoxy)butanoic acid (MK-0533): a novel selective peroxisome proliferator-activated receptor gamma modulator for the treatment of type 2 diabetes mellitus with a reduced potential to increase plasma …” (J Med Chem, 2009):
Activity calls are given as the source filed them. The calls are words filed in the database; no cut-off is given here.

Tests used:
Liver microsomes = test: Protein binding in rat liver microsomes assessed per mg of protein; type: ADME, Microsome
Liver = test: Protein binding in rat liver assessed per mg of protein; type: ADME, tissue-based
Plasma = test: Protein binding in rat plasma assessed per mg of protein; type: ADME, cell-free
[1] = target: T1, Peroxisome proliferator-activated receptor delta (Homo sapiens) (UniProt Q03181); test: Displacement of [3H2]nTZD4 from human recombinant GST-fused PPARdelta expressed in Escherichia coli at 10 uM by scintillation proximity assay
T1 sequence (whole entry): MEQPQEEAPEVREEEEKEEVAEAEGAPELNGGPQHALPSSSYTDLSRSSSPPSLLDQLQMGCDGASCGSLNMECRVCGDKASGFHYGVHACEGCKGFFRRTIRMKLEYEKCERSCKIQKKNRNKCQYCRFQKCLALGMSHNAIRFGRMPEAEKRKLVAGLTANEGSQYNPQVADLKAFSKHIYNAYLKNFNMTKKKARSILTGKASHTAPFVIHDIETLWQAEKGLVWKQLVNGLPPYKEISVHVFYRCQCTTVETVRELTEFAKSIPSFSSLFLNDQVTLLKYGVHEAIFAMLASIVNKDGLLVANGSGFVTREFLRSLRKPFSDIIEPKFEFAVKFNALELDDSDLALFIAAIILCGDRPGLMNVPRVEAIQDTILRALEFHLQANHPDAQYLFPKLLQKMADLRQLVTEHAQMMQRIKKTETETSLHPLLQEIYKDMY

[2] = target: T2, Peroxisome proliferator-activated receptor alpha (Mus musculus) (UniProt P23204); test: Agonist activity at mouse PPARalpha at 3000 nM; type: functional
T2 sequence (whole entry): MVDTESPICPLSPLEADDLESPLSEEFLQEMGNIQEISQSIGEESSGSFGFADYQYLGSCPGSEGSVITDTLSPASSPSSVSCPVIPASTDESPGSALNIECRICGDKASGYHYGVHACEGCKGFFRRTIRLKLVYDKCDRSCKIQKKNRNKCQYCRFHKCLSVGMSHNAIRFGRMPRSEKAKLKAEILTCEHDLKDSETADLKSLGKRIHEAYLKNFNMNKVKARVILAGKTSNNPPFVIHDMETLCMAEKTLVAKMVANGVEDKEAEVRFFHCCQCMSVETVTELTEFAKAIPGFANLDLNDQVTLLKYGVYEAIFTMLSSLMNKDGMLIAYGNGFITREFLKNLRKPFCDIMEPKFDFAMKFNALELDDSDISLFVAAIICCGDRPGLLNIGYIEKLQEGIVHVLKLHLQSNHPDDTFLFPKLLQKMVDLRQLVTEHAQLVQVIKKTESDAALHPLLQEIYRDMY

[3] = target: T3, Peroxisome proliferator-activated receptor alpha (Mus musculus, UniProt P23204); test: Agonist activity at mouse PPARalpha; type: functional; settings: read-out: EC50
T3 sequence (P23204 whole entry): T2 sequence (whole entry)

[4] = Agonist activity at hamster PPARalpha; type: functional, Cricetinae; settings: read-out: EC50
[5] = target: T4, Peroxisome proliferator-activated receptor alpha (Canis lupus familiaris, UniProt Q95N78); test: Agonist activity at dog PPARalpha; type: functional; settings: read-out: EC50
T4 sequence (Q95N78 whole entry): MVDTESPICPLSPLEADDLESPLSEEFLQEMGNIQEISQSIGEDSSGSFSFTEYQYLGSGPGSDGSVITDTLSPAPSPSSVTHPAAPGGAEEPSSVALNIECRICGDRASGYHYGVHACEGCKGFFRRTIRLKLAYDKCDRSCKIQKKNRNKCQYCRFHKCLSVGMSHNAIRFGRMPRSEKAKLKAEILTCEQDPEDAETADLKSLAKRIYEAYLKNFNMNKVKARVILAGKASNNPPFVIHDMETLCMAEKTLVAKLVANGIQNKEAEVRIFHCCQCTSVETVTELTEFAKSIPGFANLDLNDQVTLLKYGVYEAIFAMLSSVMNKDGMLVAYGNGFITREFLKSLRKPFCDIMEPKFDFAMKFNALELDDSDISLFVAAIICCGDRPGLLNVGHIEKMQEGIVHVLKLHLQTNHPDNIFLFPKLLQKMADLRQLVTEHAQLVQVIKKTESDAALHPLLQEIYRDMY

[6] = Terminal half life in rat; type: ADME, organism-based; settings: in vivo, read-out: beta t1/2 (converted)
[7] = Volume of distribution at steady state in rat; type: ADME, organism-based; settings: in vivo, read-out: Vdss
[8] = Oral bioavailability in dog; type: ADME, organism-based, Canis lupus familiaris; settings: in vivo
[9] = Plasma clearance in dog; type: ADME, organism-based, Canis lupus familiaris
[10] = Terminal half life in dog; type: ADME, organism-based, Canis lupus familiaris; settings: in vivo, read-out: beta t1/2 (converted)
[11] = Volume of distribution at steady state in dog; type: ADME, organism-based, Canis lupus familiaris; settings: in vivo, read-out: Vdss
[12] = Oral bioavailability in monkey; type: ADME, organism-based, Macaca mulatta; settings: rhesus monkey, in vivo
[13] = Plasma clearance in monkey; type: ADME, organism-based, Macaca mulatta; settings: rhesus monkey
[14] = AUC in db/db mouse at 30 mg/kg, po administered once daily for 11 days; type: ADME, organism-based; set-up: dose 30 mg/kg, route oral; settings: plasma
Rattus norvegicus [15] = test: Toxicity in Sprague-Dawley rat assessed as brown adipose tissue weight at 300 mg/kg dosed daily for 2 weeks; type: organism-based; set-up: dose 300 mg/kg; settings: in vivo, 336 h
[16] = AUC in Sprague-Dawley rat at 300 mg/kg dosed daily for 2 weeks; type: ADME, organism-based; set-up: dose 300 mg/kg; settings: plasma
Rattus norvegicus [17] = test: Antidiabetic activity in obese insulin-resistant Zucker fa/fa rat assessed as decrease in plasma triglyceride level at 3 to 150 mg/kg, po once daily for 7 days; type: functional, organism-based
[18] = AUC in obese insulin-resistant Zucker fa/fa rat at 30 mg/kg, po once daily for 7 days; type: ADME, organism-based; set-up: dose 30 mg/kg, route oral; settings: plasma
Rattus norvegicus [19] = test: Toxicity in obese insulin-resistant Zucker fa/fa rat assessed as increase in plasma volume at 30 mg/kg, po once daily for 7 days by Evans blue dye dilution technique; type: organism-based; set-up: dose 30 mg/kg, route oral; settings: in vivo, 168 h
Rattus norvegicus [20] = test: Toxicity in obese insulin-resistant Zucker fa/fa rat assessed as increase in extracellular fluid volume at 3 to 150 mg/kg, po once daily for 7 days measured after 24 hrs by bioelectrical impedance analysis; type: organism-based; set-up: dose 3-150 mg/kg, route oral; settings: in vivo
[21] = target: T5, Peroxisome proliferator-activated receptor alpha (Canis lupus familiaris) (UniProt Q95N78); test: Agonist activity at dog PPARalpha at 3000 nM; type: functional
T5 sequence (whole entry): T4 sequence (Q95N78 whole entry)

[22] = target: T6, Peroxisome proliferator-activated receptor gamma (Homo sapiens, UniProt P37231)
T6 sequence (P37231 whole entry): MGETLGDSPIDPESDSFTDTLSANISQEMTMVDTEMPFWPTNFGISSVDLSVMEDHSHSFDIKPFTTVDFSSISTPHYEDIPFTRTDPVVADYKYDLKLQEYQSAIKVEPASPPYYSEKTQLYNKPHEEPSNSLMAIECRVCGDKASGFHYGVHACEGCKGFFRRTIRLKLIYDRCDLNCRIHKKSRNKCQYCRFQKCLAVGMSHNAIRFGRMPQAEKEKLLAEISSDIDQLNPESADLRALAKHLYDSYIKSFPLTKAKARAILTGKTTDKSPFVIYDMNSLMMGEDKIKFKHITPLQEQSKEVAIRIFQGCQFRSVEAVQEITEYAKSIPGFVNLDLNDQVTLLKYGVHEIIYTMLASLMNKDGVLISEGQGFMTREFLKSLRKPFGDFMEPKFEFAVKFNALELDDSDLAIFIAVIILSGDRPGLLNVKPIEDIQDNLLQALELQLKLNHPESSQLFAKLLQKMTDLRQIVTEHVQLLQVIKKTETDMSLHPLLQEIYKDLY
Description: Displacement of [3H2]nTZD3 from human recombinant GST-fused PPARgamma expressed in Escherichia coli by scintillation proximity assay

SMILES: CC[C@@H](Oc1cccc(-n2c(C)c(C(=O)c3ccc(OC)cc3)c3ccc(OC(F)(F)F)cc32)c1)C(=O)O [MK-0533]
- PB (Liver microsomes): < 10 pmol
- PB (Liver): < 10 pmol
- PPB (Plasma): < 10 pmol
- Activity [1]: inactive
- Activity [2]: 53%
- EC50 [3]: 240 nM
- EC50 [4]: 330 nM
- EC50 [5]: 370 nM
- half-life [6]: 1.6 h
- Vd [7]: 1.4 L/kg
- bioavailability [8]: 59%
- clearance [9]: 7.5 mL/min/kg
- half-life [10]: 3.6 h
- Vd [11]: 1.4 L/kg
- bioavailability [12]: 25%
- clearance [13]: 10.1 mL/min/kg
- AUC at 264 h [14]: 60 µM·h
- Activity (Rattus norvegicus [15]): 537 mg
- AUC at 336 h [16]: 954 µM·h
- Activity (Rattus norvegicus [17]): Active
- AUC at 168 h [18]: 115 µM·h
- Activity (Rattus norvegicus [19]): Non-toxic
- Activity (Rattus norvegicus [20]): Non-toxic
- Activity [21]: 35%
- IC50 [22]: 9 nM
